Laboratory results: patent US9902736B2, “1-oxo/acylation-14-acylated oridonin derivative, preparation method therefor and application thereof” (HANGZHOU BENSHENG PHARMACEUTICAL CO., LTD., priority 2012, dated 2018)
Values after ≈ are worked out from the molar mass of the structure shown.

Tests used:
[1] = system: K562/ADR; assay: Leukemia cell growth inhibition, MTT, 72 h; assay type: cell-based; settings: Homo sapiens
Outline: (§1)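 6000 cells per well were seeded, and the next day test compounds were added at a range of concentrations. Plates were kept at 37° C in 5% CO2 for 72 hours before viable cells were measured by MTT. K562/ADR is a drug-resistant CML line; H9 and Jurkat are ALL; Kasumi-1 is AML-M2.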

[2] = system: Kasumi-1; assay: Leukemia cell growth inhibition, MTT, 72 h; assay type: cell-based; settings: Homo sapiens
Outline: as §1

[3] = system: H9; assay: Leukemia cell growth inhibition, MTT, 72 h; assay type: cell-based, human; settings: Homo sapiens, H9; 72 h, MTT
Outline: as §1

[4] = system: Jurkat; assay: Leukemia cell growth inhibition, MTT, 72 h; assay type: cell-based, human; settings: for IC50 / IC90: Homo sapiens, Jurkat, 72 h, MTT
Outline: as §1

[5] = system: NB4; assay: Leukemia cell growth inhibition, MTT, 72 h; assay type: cell-based, human; settings: Homo sapiens, NB-4; 72 h, MTT
Outline: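 MTT read-out of viable cell concentration after 72 hours of exposure at 37° C under 5% CO2. Compounds were dosed at several concentrations one day after plating 6000 cells per well.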

[6] = system: RPMI 8226; assay: Multiple myeloma cell growth inhibition, MTT, 72 h; assay type: cell-based; settings: Homo sapiens
Outline: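 Growth inhibition by MTT after 72 h drug exposure (37 °C, 5% CO2) over a concentration range of oridonin derivatives. RPMI 8226 cells plated at 6000 per well and dosed the following day.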

[7] = system: CNE; assay: Solid tumor cell growth inhibition, MTT, 72 h; assay type: cell-based, human; settings: Homo sapiens, CNE; 72 h, MTT
Outline: (§2)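 Human tumor cells were seeded at 6000 per well in DMEM High Glucose with 10% fetal bovine serum and allowed to settle for 24 hours at 37° C under 5% CO2. Compounds were then added at a range of concentrations before viable cell concentration was determined.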

[8] = system: Hela; assay: Solid tumor cell growth inhibition, MTT, 72 h; assay type: cell-based, human; settings: Homo sapiens, HeLa; 72 h, MTT
Outline: as §2

[9] = system: Hep-2; assay: Solid tumor cell growth inhibition, MTT, 72 h; assay type: cell-based, human; settings: Homo sapiens, HEp-2; 72 h, MTT
Outline: as §2

[10] = system: MGC-803; assay: Solid tumor cell growth inhibition, MTT, 72 h; assay type: cell-based, human; settings: Homo sapiens, MGC-803; 72 h, MTT
Outline: as §2

[11] = system: A549; assay: Solid tumor cell growth inhibition, MTT, 72 h; assay type: cell-based; settings: Homo sapiens
Outline: as §2

[12] = system: Becap-37; assay: Solid tumor cell growth inhibition, MTT, 72 h; assay type: cell-based; settings: Homo sapiens
Outline: as §2

[13] = system: CaEs-17; assay: Solid tumor cell growth inhibition, MTT, 72 h; assay type: cell-based; settings: Homo sapiens, CaEs17
Outline: as §2

[14] = system: Hep G2; assay: Solid tumor cell growth inhibition, MTT, 72 h; assay type: cell-based; settings: Homo sapiens, HepG2
Outline: as §2

[15] = system: MG-63; assay: Solid tumor cell growth inhibition, MTT, 72 h; assay type: cell-based; settings: Homo sapiens
Outline: as §2

[16] = system: PANC-1; assay: Solid tumor cell growth inhibition, MTT, 72 h; assay type: cell-based; settings: Homo sapiens
Outline: as §2

[17] = system: PC-3; assay: Solid tumor cell growth inhibition, MTT, 72 h; assay type: cell-based; settings: Homo sapiens
Outline: as §2

[18] = system: RKO; assay: Solid tumor cell growth inhibition, MTT, 72 h; assay type: cell-based; settings: Homo sapiens
Outline: as §2

[19] = system: SK-OV-3; assay: Solid tumor cell growth inhibition, MTT, 72 h; assay type: cell-based; settings: Homo sapiens, SK-OV-3, 72 h, MTT; for IC50: read-out: IC50 SK-OV-3; for IC90: read-out: IC90 SK-OV-3
Outline: as §2

[20] = system: U87-MG; assay: Solid tumor cell growth inhibition, MTT, 72 h; assay type: cell-based; settings: Homo sapiens, U-87 MG
Outline: as §2

How did the IC50 [1] turn out when C=C1C(=O)[C@]23[C@H](OC(=O)c4ccc(Cl)cc4)[C@H]1CC[C@H]2[C@@]12CO[C@@]3(O)[C@@H](O)[C@@H]1C(C)(C)CCC2=O [BS-OR-010] was run?
Its IC50 is 0.44 µg/mL (≈ 0.878 µM).

And the IC90 [1]?
The IC90 was 1.98 µg/mL (≈ 3.95 µM).

And the IC50 [2]?
The IC50 was 0.57 µg/mL (≈ 1.14 µM).

And the IC90 [2]?
The IC90 was 1.76 µg/mL (≈ 3.51 µM).

What about the IC50 [3] of the same compound?
Its IC50 is 0.38 µg/mL (≈ 0.759 µM).

What about the IC90 [3] of the same compound?
Its IC90 is 0.96 µg/mL (≈ 1.92 µM).

What about the IC50 [4] of the same compound?
The IC50 was 0.48 µg/mL (≈ 0.958 µM).

And the IC90 [4]?
The IC90 was 6.06 µg/mL (≈ 12.1 µM).

And the “anti-Jurkat cell line activity increased” value ([4]; as compared with oridonin)?
The value was about 4 fold.

What about the IC50 [5] of the same compound?
The IC50 was 0.15 µg/mL (≈ 0.299 µM).

And the IC90 [5]?
The IC90 was 0.95 µg/mL (≈ 1.9 µM).

What about the IC50 [6] of the same compound?
The IC50 was 0.28 µg/mL (≈ 0.559 µM).

What about the IC90 [6] of the same compound?
Its IC90 is 1.78 µg/mL (≈ 3.55 µM).

And the IC50 [7]?
The IC50 was 1.39 µg/mL (≈ 2.77 µM).

What about the IC90 [7] of the same compound?
The IC90 was 5.94 µg/mL (≈ 11.9 µM).

What about the IC50 [8] of the same compound?
The IC50 was 1.49 µg/mL (≈ 2.97 µM).

And the IC90 [8]?
The IC90 was 5.31 µg/mL (≈ 10.6 µM).

And the IC50 [9]?
Its IC50 is 1.8 µg/mL (≈ 3.59 µM).

What about the IC90 [9] of the same compound?
Its IC90 is 9.11 µg/mL (≈ 18.2 µM).

And the IC50 [10]?
Its IC50 is 0.68 µg/mL (≈ 1.36 µM).

What about the IC90 [10] of the same compound?
The IC90 was 9.04 µg/mL (≈ 18 µM).

And the IC50 [11]?
Its IC50 is 2.83 µg/mL (≈ 5.65 µM).

And the IC90 [11]?
Its IC90 is 7.29 µg/mL (≈ 14.6 µM).

And the IC50 [12]?
Its IC50 is 1.03 µg/mL (≈ 2.06 µM).

What about the IC90 [12] of the same compound?
The IC90 was 3.72 µg/mL (≈ 7.43 µM).

What about the IC50 [13] of the same compound?
The IC50 was 1.1 µg/mL (≈ 2.2 µM).

And the IC90 [13]?
The IC90 was 5.51 µg/mL (≈ 11 µM).

And the IC50 [14]?
Its IC50 is 0.99 µg/mL (≈ 1.98 µM).

And the IC90 [14]?
The IC90 was 11.7 µg/mL (≈ 23.4 µM).

What about the IC50 [15] of the same compound?
The IC50 was 0.46 µg/mL (≈ 0.918 µM).

And the IC90 [15]?
The IC90 was 0.95 µg/mL (≈ 1.9 µM).

And the IC50 [16]?
Its IC50 is 1.86 µg/mL (≈ 3.71 µM).

And the IC90 [16]?
Its IC90 is 10.7 µg/mL (≈ 21.3 µM).

What about the IC50 [17] of the same compound?
Its IC50 is 1.66 µg/mL (≈ 3.31 µM).

And the IC90 [17]?
The IC90 was 4.77 µg/mL (≈ 9.52 µM).

And the IC50 [18]?
The IC50 was 0.46 µg/mL (≈ 0.918 µM).

What about the IC90 [18] of the same compound?
The IC90 was 0.95 µg/mL (≈ 1.9 µM).

What about the IC50 [19] of the same compound?
The IC50 was 1.66 µg/mL (≈ 3.31 µM).

What about the IC90 [19] of the same compound?
The IC90 was 4.77 µg/mL (≈ 9.52 µM).

And the IC50 [20]?
The IC50 was 0.94 µg/mL (≈ 1.88 µM).

And the IC90 [20]?
Its IC90 is 2.78 µg/mL (≈ 5.55 µM).

How did the IC50 [1] turn out when C=C1C(=O)[C@]23[C@H](OC(=O)C4CCN(S(=O)(=O)c5ccccc5)CC4)[C@H]1CC[C@H]2[C@@]12CO[C@@]3(O)[C@@H](O)[C@@H]1C(C)(C)CCC2=O [BS-OR-032] was run?
Its IC50 is 1.09 µg/mL (≈ 1.78 µM).

And the IC90 [1]?
Its IC90 is 2.97 µg/mL (≈ 4.84 µM).

And the IC50 [2]?
The IC50 was 1.5 µg/mL (≈ 2.44 µM).

What about the IC90 [2] of the same compound?
Its IC90 is 2.92 µg/mL (≈ 4.76 µM).

And the IC50 [3]?
The IC50 was 6.71 µg/mL (≈ 10.9 µM).

What about the IC90 [3] of the same compound?
Its IC90 is 12.7 µg/mL (≈ 20.7 µM).

What about the IC50 [4] of the same compound?
The IC50 was 0.93 µg/mL (≈ 1.52 µM).

What about the IC90 [4] of the same compound?
The IC90 was 6.15 µg/mL (≈ 10 µM).

And the IC50 [5]?
Its IC50 is 4.09 µg/mL (≈ 6.66 µM).

What about the IC90 [5] of the same compound?
The IC90 was 9.77 µg/mL (≈ 15.9 µM).

And the IC50 [6]?
Its IC50 is 1.34 µg/mL (≈ 2.18 µM).

What about the IC90 [6] of the same compound?
Its IC90 is 2.95 µg/mL (≈ 4.81 µM).

What about the IC50 [7] of the same compound?
Its IC50 is over 16 µg/mL.

What about the IC90 [7] of the same compound?
Its IC90 is over 16 µg/mL.

What about the IC50 [8] of the same compound?
Its IC50 is 2.63 µg/mL (≈ 4.29 µM).

What about the IC90 [8] of the same compound?
The IC90 was 5.67 µg/mL (≈ 9.24 µM).

What about the IC50 [9] of the same compound?
Its IC50 is over 16 µg/mL.

What about the IC90 [9] of the same compound?
The IC90 was over 16 µg/mL.

And the IC50 [10]?
Its IC50 is 12.7 µg/mL (≈ 20.7 µM).

What about the IC90 [10] of the same compound?
The IC90 was over 16 µg/mL.

And the IC50 [11]?
The IC50 was 5.68 µg/mL (≈ 9.25 µM).

And the IC90 [11]?
The IC90 was 9.98 µg/mL (≈ 16.3 µM).

What about the IC50 [12] of the same compound?
The IC50 was 2.93 µg/mL (≈ 4.77 µM).

What about the IC90 [12] of the same compound?
The IC90 was 10.5 µg/mL (≈ 17.1 µM).

What about the IC50 [13] of the same compound?
Its IC50 is 1.62 µg/mL (≈ 2.64 µM).

What about the IC90 [13] of the same compound?
Its IC90 is 11.7 µg/mL (≈ 19.1 µM).

And the IC50 [14]?
The IC50 was 3.17 µg/mL (≈ 5.17 µM).

And the IC90 [14]?
The IC90 was at least 17.2 µg/mL.

What about the IC50 [15] of the same compound?
The IC50 was 0.98 µg/mL (≈ 1.6 µM).

And the IC90 [15]?
Its IC90 is 1.97 µg/mL (≈ 3.21 µM).

What about the IC50 [16] of the same compound?
Its IC50 is 3.61 µg/mL (≈ 5.88 µM).

What about the IC90 [16] of the same compound?
Its IC90 is 7.88 µg/mL (≈ 12.8 µM).

And the IC50 [17]?
Its IC50 is 3.07 µg/mL (≈ 5 µM).

What about the IC90 [17] of the same compound?
Its IC90 is 5.41 µg/mL (≈ 8.81 µM).

What about the IC50 [18] of the same compound?
The IC50 was 0.89 µg/mL (≈ 1.45 µM).

What about the IC90 [18] of the same compound?
Its IC90 is 1.99 µg/mL (≈ 3.24 µM).

And the IC50 [19]?
The IC50 was 3.07 µg/mL (≈ 5 µM).

What about the IC90 [19] of the same compound?
Its IC90 is 5.41 µg/mL (≈ 8.81 µM).

What about the IC50 [20] of the same compound?
Its IC50 is 1.26 µg/mL (≈ 2.05 µM).

What about the IC90 [20] of the same compound?
Its IC90 is 4.56 µg/mL (≈ 7.43 µM).
